According to ChEMBL document CHEMBL4765451, “The one-pot synthesis of butyl-1H-indol-3-alkylcarboxylic acid derivatives in ionic liquid as potent dual-acting agent for management of BPH” (Eur J Med Chem, 2020):

How the values were obtained:
[1] = target: T1, Alpha-1B adrenergic receptor (Homo sapiens, UniProt P35368); experiment: Antagonist activity at human alpha1B receptor transfected in HEK293 cells co-transfected with Galpha16 assessed as reduction in intracellular calcium release incubated for 40 mins by Fluo-4AM dye based fluorescence assay; assay type: functional, cell-based
T1 sequence (P35368 whole entry): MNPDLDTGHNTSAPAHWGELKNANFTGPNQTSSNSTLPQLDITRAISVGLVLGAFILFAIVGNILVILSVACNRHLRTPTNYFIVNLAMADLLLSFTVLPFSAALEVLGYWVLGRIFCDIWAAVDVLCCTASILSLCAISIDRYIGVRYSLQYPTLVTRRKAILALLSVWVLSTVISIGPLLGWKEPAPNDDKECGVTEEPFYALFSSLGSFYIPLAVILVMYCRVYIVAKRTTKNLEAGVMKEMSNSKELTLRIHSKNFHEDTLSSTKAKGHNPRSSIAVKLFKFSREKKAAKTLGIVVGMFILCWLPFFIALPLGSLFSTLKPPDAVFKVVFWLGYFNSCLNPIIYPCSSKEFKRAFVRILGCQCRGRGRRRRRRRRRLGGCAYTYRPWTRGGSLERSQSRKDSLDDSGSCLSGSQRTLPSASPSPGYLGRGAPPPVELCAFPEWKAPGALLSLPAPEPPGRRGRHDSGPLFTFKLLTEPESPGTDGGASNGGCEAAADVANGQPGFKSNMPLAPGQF

[2] = target: T2, Alpha-1A adrenergic receptor (Homo sapiens, UniProt P35348); experiment: Antagonist activity at human alpha1A receptor transfected in HEK293 cells co-transfected with Galpha16 assessed as reduction in intracellular calcium release incubated for 40 mins by Fluo-4AM dye based fluorescence assay; assay type: functional, cell-based
T2 sequence (P35348 whole entry): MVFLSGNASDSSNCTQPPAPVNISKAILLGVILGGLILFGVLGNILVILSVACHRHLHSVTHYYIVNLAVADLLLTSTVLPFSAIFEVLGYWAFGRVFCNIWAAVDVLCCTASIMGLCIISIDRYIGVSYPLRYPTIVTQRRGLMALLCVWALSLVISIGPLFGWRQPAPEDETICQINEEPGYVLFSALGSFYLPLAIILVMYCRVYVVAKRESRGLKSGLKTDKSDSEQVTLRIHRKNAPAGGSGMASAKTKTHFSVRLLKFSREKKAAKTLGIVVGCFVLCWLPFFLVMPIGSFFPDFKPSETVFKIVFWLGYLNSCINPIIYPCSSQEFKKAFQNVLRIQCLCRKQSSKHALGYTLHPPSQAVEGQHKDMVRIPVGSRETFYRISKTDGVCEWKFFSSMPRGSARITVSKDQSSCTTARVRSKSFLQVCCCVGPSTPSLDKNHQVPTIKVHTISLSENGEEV

[3] = target: T3, Alpha-1D adrenergic receptor (Homo sapiens, UniProt P25100); experiment: Antagonist activity at human alpha1D receptor transfected in HEK293 cells co-transfected with Galpha16 assessed as reduction in intracellular calcium release incubated for 40 mins by Fluo-4AM dye based fluorescence assay; assay type: functional, cell-based
T3 sequence (P25100 whole entry): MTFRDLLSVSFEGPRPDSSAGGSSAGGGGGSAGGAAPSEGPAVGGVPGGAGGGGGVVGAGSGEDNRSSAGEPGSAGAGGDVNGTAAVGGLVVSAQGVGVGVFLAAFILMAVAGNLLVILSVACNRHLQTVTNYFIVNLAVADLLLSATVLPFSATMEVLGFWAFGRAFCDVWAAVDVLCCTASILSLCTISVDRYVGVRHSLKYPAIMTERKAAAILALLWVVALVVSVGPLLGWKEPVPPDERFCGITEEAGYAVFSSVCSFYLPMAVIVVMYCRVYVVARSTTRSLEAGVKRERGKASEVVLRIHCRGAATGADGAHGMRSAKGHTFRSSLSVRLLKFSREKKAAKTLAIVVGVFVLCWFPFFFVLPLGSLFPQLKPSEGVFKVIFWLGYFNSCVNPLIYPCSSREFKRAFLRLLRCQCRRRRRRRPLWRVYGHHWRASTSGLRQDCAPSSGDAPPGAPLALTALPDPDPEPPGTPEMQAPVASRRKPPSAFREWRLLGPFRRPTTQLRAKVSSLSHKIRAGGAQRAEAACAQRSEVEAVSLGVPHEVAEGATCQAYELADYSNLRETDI

[4] = Inhibition of 5-alpha reductase in rat liver microsomes assessed as inhibition of DHT formation using testosterone as substrate incubated for 10 mins by NADPH assay
[5] = Cmax in Sprague-Dawley rat at 20 mg/kg, ip; assay type: ADME, organism-based; parameters: route intraperitoneal, dose 20 mg/kg; details: in vivo
[6] = Tmax in Sprague-Dawley rat at 2 mg/kg, iv; assay type: ADME, organism-based; details: in vivo
[7] = Bioavailability in Sprague-Dawley rat at 20 mg/kg, ip; assay type: ADME, organism-based; details: in vivo
[8] = Half life in Sprague-Dawley rat at 20 mg/kg, ip; assay type: ADME, organism-based; details: in vivo
[9] = Cmax in Sprague-Dawley rat at 2 mg/kg, iv; assay type: ADME, organism-based; parameters: route intravenous, dose 2 mg/kg; details: in vivo
[10] = AUC (0 to t) in Sprague-Dawley rat at 20 mg/kg, ip; assay type: ADME, organism-based; parameters: dose 20 mg/kg; details: in vivo
[11] = AUC (0 to infinity) in Sprague-Dawley rat at 2 mg/kg, iv; assay type: ADME, organism-based; parameters: time infinity, route intravenous, dose 2 mg/kg; details: in vivo
[12] = MRT in Sprague-Dawley rat at 2 mg/kg, iv; assay type: ADME, organism-based; details: in vivo
[13] = AUC (0 to infinity) in Sprague-Dawley rat at 20 mg/kg, ip; assay type: ADME, organism-based; parameters: time infinity, route intraperitoneal, dose 20 mg/kg; details: in vivo
[14] = Tmax in Sprague-Dawley rat at 20 mg/kg, ip; assay type: ADME, organism-based; details: in vivo
[15] = Half life in Sprague-Dawley rat at 2 mg/kg, iv; assay type: ADME, organism-based; details: in vivo
Caco-2 = experiment: Cytotoxicity against human Caco-2 cells assessed as reduction in cell viability at 0.390625 to 100 uM incubated for 72 hrs by MTT assay; assay type: cell-based; details: caco-2, 72 h, dose 0.390625-100 µM
[16] = MRT in Sprague-Dawley rat at 20 mg/kg, ip; assay type: ADME, organism-based; details: in vivo
[17] = AUC (0 to t) in Sprague-Dawley rat at 2 mg/kg, iv; assay type: ADME, organism-based; parameters: dose 2 mg/kg; details: in vivo
Huh-7 = experiment: Cytotoxicity against human Huh-7 cells assessed as reduction in cell viability at 0.390625 to 100 uM incubated for 72 hrs by MTT assay; assay type: cell-based; details: huh-7, 72 h, dose 0.390625-100 µM

Compound	IC50 [1] [nM]	IC50 [2] [nM]	IC50 [3] [nM]	IC50 [4] [nM]	other results
O=C(O)CCCc1cn(CCCCCN2CCN(c3ccccc3Cl)CC2)c2ccccc12	> 1000	32.9	329	612	
CC(C)(C)NC(=O)[C@H]1CC[C@H]2[C@@H]3CC[C@H]4NC(=O)C=C[C@]4(C)[C@H]3CC[C@]12C [FINASTERIDE]				590	
CCOc1ccccc1OCCN[C@H](C)Cc1ccc(OC)c(S(N)(=O)=O)c1 [TAMSULOSIN]	4.2		0.15		

The next lines start with results.

IC50 [1] [nM]	IC50 [2] [nM]	IC50 [3] [nM]	IC50 [4] [nM]	Compound	other results
9.8	> 1000	378	> 5000	COc1ccccc1N1CCN(CCCCCn2cc(CCCC(=O)O)c3ccccc32)CC1	
> 1000	20.8	189	568	COc1ccccc1N1CCN(CCCCn2cc(CCCC(=O)O)c3ccccc32)CC1	Cmax [5]: 89.6 ng/mL; Tmax [6]: 3 min; bioavailability [7]: 8.83%; half-life [8]: 5.75 h; Cmax [9]: 37.9 ng/mL; AUC(0-t) [10]: 17.5 ng·h/mL; AUC(0-inf) [11]: 30.5 ng·h/mL; MRT [12]: 1.94 h; AUC(0-inf) [13]: 26.9 ng·h/mL; Tmax [14]: 3 min; half-life [15]: 11 h; Activity (Caco-2): Non-Toxic; MRT [16]: 1.49 h; AUC(0-t) [17]: 12.3 ng·h/mL; Activity (Huh-7): Non-Toxic
> 1000	> 1000	189	> 5000	O=C(O)CCCc1cn(CCCCN2CCN(c3ccccc3Cl)CC2)c2ccccc12	
> 1000	> 1000	164	> 5000	COc1ccccc1N1CCN(CCCn2cc(CCCC(=O)O)c3ccccc32)CC1	
